Drawing on ChEMBL document CHEMBL4342428, “d-Limonene Ameliorates Myocardial Infarction Injury by Reducing Reactive Oxygen Species and Cell Apoptosis in a Murine Model” (2019), this text covers Activity for two compounds.

Experiment [1] has as its system Mus musculus. Nature of the experiment: Cardioprotective activity in Swiss mouse model of isoproterenol-induced myocardial Infarction assessed as abnormal ST-segment at 1200 mg/kg administered 30 mins post isoproterenol stimulation and measured for 5 mins by electrocardiographic analysis (reference value: 70%). In kind it is functional.
Experiment [2] deals with Mus musculus. Nature of the experiment: Cardioprotective activity in Swiss mouse model of myocardial infarction assessed as reversal of isoproterenol-induced increase in QTc interval at 1200 mg/kg administered 30 mins post isoproterenol stimulation and measured for 5 mins by electrocardiographic analysis. The experiment is classed as functional, organism-based.
The subject of experiment [3] is Mus musculus. In words: Cardioprotective activity in Swiss mouse model of myocardial infarction assessed as reversal of isoproterenol-induced increase in heart rate at 1200 mg/kg administered 30 mins post isoproterenol stimulation and measured for 5 mins by electrocardiographic analysis. The experiment is classed as functional, organism-based.
Experiment [4] deals with Mus musculus. In words: Cardioprotective activity in Swiss mouse model of isoproterenol-induced myocardial infarction assessed as reduction in myocardial infarct size at 1200 mg/kg administered 30 mins post isoproterenol stimulation by TTC staining based assay. The experiment is classed as functional, organism-based.
The subject of experiment [5] is Mus musculus. Nature of the experiment: Cardioprotective activity in Swiss mouse model of isoproterenol-induced myocardial infarction assessed as reduction in lactate dehydrogenase at 1200 mg/kg administered 30 mins post isoproterenol stimulation. The experiment is classed as functional, organism-based.
Experiment [6] relates to Mus musculus. Nature of the experiment: Cardioprotective activity in Swiss mouse model of isoproterenol-induced myocardial infarction assessed as reduction in creatine kinase myocardial band at 1200 mg/kg administered 30 mins post isoproterenol stimulation. The experiment is classed as functional, organism-based.
Experiment [7] concerns Mus musculus. Nature of the experiment: Cardioprotective activity against isoproterenol-induced oxidative stress in Swiss mouse model of myocardial infarction assessed as reduction in ROS generation at 1200 mg/kg administered 30 mins post isoproterenol stimulation by DHE staining based fluorescence assay. In kind it is functional, organism-based.
Experiment [8] deals with Mus musculus. In words: Cardioprotective activity against isoproterenol-induced apoptosis in Swiss mouse model of myocardial infarction assessed as increase in Bcl2 expression at 1200 mg/kg administered 30 mins post isoproterenol stimulation by Western blot analysis. The experiment is classed as functional, organism-based.
Experiment [9] has as its system Mus musculus. Nature of the experiment: Cardioprotective activity against isoproterenol-induced apoptosis in Swiss mouse model of myocardial infarction assessed as reduction in Bax/Bcl2 expression ratio in at 1200 mg/kg administered 30 mins post isoproterenol stimulation by Western blot analysis. In kind it is functional, organism-based.
For experiment [10], the system named is Mus musculus. In words: Cardioprotective activity against isoproterenol-induced apoptosis in Swiss mouse model of myocardial infarction assessed as reduction in Bax expression at 1200 mg/kg administered 30 mins post isoproterenol stimulation by Western blot analysis. The experiment is classed as functional, organism-based.
Experiment [11] relates to Mus musculus. In words: Cardioprotective activity in Swiss mouse model of isoproterenol-induced myocardial Infarction assessed as abnormal ST-segment at 10 umol, ip administered 30 mins post isoproterenol stimulation and measured for 5 mins by electrocardiographic analysis (reference value: 70%). In kind it is functional.
Experiment [12] concerns Mus musculus. Nature of the experiment: Cardioprotective activity in Swiss mouse model of myocardial infarction assessed as reversal of isoproterenol-induced increase in QTc interval at 10 umol, ip administered 30 mins post isoproterenol stimulation and measured for 5 mins by electrocardiographic analysis. The experiment is classed as functional, organism-based.
In experiment [13] the test system is Mus musculus. Nature of the experiment: Cardioprotective activity in Swiss mouse model of myocardial infarction assessed as reversal of isoproterenol-induced increase in heart rate at 10 umol, ip administered 30 mins post isoproterenol stimulation and measured for 5 mins by electrocardiographic analysis. The experiment is classed as functional, organism-based.

For experiment [14], the system named is Mus musculus. In words: Cardioprotective activity in Swiss mouse model of isoproterenol-induced myocardial infarction assessed as reduction in myocardial infarct size at 10 umol, ip administered 30 mins post isoproterenol stimulation by TTC staining based assay. The experiment is classed as functional, organism-based.
Experiment [15] deals with Mus musculus. Nature of the experiment: Cardioprotective activity in Swiss mouse model of isoproterenol-induced myocardial infarction assessed as reduction in inflammatory cell infiltration in myocardium at 10 umol, ip administered 30 mins post isoproterenol stimulation by H and E staining based histopathological analysis. In kind it is functional, organism-based.
In experiment [16] the test system is Mus musculus. Nature of the experiment: Cardioprotective activity in Swiss mouse model of isoproterenol-induced myocardial infarction assessed as reduction in lactate dehydrogenase at 10 umol, ip administered 30 mins post isoproterenol stimulation. The experiment is classed as functional, organism-based.
The test system of experiment [17] is Mus musculus. In words: Cardioprotective activity in Swiss mouse model of isoproterenol-induced myocardial infarction assessed as reduction in creatine kinase myocardial band at 10 umol, ip administered 30 mins post isoproterenol stimulation. In kind it is functional, organism-based.
The subject of experiment [18] is Mus musculus. In words: Cardioprotective activity in Swiss mouse model of myocardial infarction assessed as protection against isoproterenol-induced discontinuity in myocardium at 10 umol, ip administered 30 mins post isoproterenol stimulation by H and E staining based histopathological analysis. In kind it is functional, organism-based.
The test system of experiment [19] is Mus musculus. In words: Cardioprotective activity in Swiss mouse model of myocardial infarction assessed as protection against isoproterenol-induced mononuclear cell infiltration in myocardium at 10 umol, ip administered 30 mins post isoproterenol stimulation by H and E staining based histopathological analysis. The experiment is classed as functional, organism-based.

Experiment [20] relates to Mus musculus. In words: Cardioprotective activity in Swiss mouse model of myocardial infarction assessed as protection against isoproterenol-induced degeneration in myocardium at 10 umol, ip administered 30 mins post isoproterenol stimulation by H and E staining based histopathological analysis. In kind it is functional, organism-based.
Experiment [21] deals with Mus musculus. In words: Cardioprotective activity in Swiss mouse model of myocardial infarction assessed as protection against isoproterenol-induced wide spacing in myocardium at 10 umol, ip administered 30 mins post isoproterenol stimulation by H and E staining based histopathological analysis. In kind it is functional, organism-based.
Experiment [22] concerns Mus musculus. In words: Cardioprotective activity in Swiss mouse model of myocardial infarction assessed as protection against isoproterenol-induced vacuolation in myocardium at 10 umol, ip administered 30 mins post isoproterenol stimulation by H and E staining based histopathological analysis. The experiment is classed as functional, organism-based.
Experiment [23] concerns Mus musculus. Nature of the experiment: Cardioprotective activity in Swiss mouse model of myocardial infarction assessed as protection against isoproterenol-induced capillary congestion in myocardium at 10 umol, ip administered 30 mins post isoproterenol stimulation by H and E staining based histopathological analysis. The experiment is classed as functional, organism-based.

For experiment [24], the system named is Mus musculus. In words: Cardioprotective activity against isoproterenol-induced oxidative stress in Swiss mouse model of myocardial infarction assessed as reduction in ROS generation at 10 umol, ip administered 30 mins post isoproterenol stimulation by DHE staining based fluorescence assay. In kind it is functional, organism-based.
Experiment [25] relates to Mus musculus. In words: Cardioprotective activity against isoproterenol-induced oxidative stress in Swiss mouse model of myocardial infarction assessed as reduction in lipid peroxidation at 10 umol, ip administered 30 mins post isoproterenol stimulation by TBARS method. The experiment is classed as functional, organism-based.
The subject of experiment [26] is Mus musculus. Nature of the experiment: Cardioprotective activity against isoproterenol-induced oxidative stress in Swiss mouse model of myocardial infarction assessed as reduction in protein carbonylation at 10 umol, ip administered 30 mins post isoproterenol stimulation by spectrophotometric method. The experiment is classed as functional, organism-based.
In experiment [27] the test system is Mus musculus. Nature of the experiment: Cardioprotective activity against isoproterenol-induced oxidative stress in Swiss mouse model of myocardial infarction assessed as reduction in sulfhydryl level in cardiac tissue homogenate at 10 umol, ip administered 30 mins post isoproterenol stimulation by spectrophotometric method. The experiment is classed as functional, organism-based.

Experiment [28] relates to Mus musculus. In words: Cardioprotective activity against isoproterenol-induced oxidative stress in Swiss mouse model of myocardial infarction assessed as change in ferric ion reducing activity at 10 umol, ip administered 30 mins post isoproterenol stimulation by FRAP assay. In kind it is functional, organism-based.
Experiment [29] concerns Mus musculus. In words: Cardioprotective activity against isoproterenol-induced oxidative stress in Swiss mouse model of myocardial infarction assessed as increase in catalase activity at 10 umol, ip administered 30 mins post isoproterenol stimulation by spectrophotometric method. In kind it is functional, organism-based.
Experiment [30] has as its system Mus musculus. Nature of the experiment: Cardioprotective activity against isoproterenol-induced oxidative stress in Swiss mouse model of myocardial infarction assessed as increase in SOD activity at 10 umol, ip administered 30 mins post isoproterenol stimulation by spectrophotometric method. In kind it is functional, organism-based.
For experiment [31], the system named is Mus musculus. In words: Cardioprotective activity against isoproterenol-induced oxidative stress in Swiss mouse model of myocardial infarction assessed as increase in GPx activity at 10 umol, ip administered 30 mins post isoproterenol stimulation by spectrophotometric method. The experiment is classed as functional, organism-based.
The test system of experiment [32] is Mus musculus. Nature of the experiment: Cardioprotective activity against isoproterenol-induced apoptosis in Swiss mouse model of myocardial infarction assessed as reduction in Bax expression at 10 umol, ip administered 30 mins post isoproterenol stimulation by Western blot analysis. The experiment is classed as functional, organism-based.
Experiment [33] deals with Mus musculus. In words: Cardioprotective activity against isoproterenol-induced apoptosis in Swiss mouse model of myocardial infarction assessed as change in Bcl2 expression at 10 umol, ip administered 30 mins post isoproterenol stimulation by Western blot analysis. The experiment is classed as functional, organism-based.
In experiment [34] the test system is Mus musculus. Nature of the experiment: Cardioprotective activity against isoproterenol-induced apoptosis in Swiss mouse model of myocardial infarction assessed as reduction in Bax/Bcl2 expression ratio in at 10 umol, ip administered 30 mins post isoproterenol stimulation by Western blot analysis. In kind it is functional, organism-based.
Experiment [35] relates to Mus musculus. Nature of the experiment: Cardioprotective activity against isoproterenol-induced oxidative stress in Swiss mouse model of myocardial infarction assessed as reduction in caspase-3 expression at 10 umol, ip administered 30 mins post isoproterenol stimulation by Western blot analysis. In kind it is functional, organism-based.

Calls of active or inactive are those of the source. No cut-off for these calls is given here.

For `CC(=O)N[C@@H](CS)C(=O)O` [ACETYLCYSTEINE], in the experiment with Mus musculus [1], the Activity was 20%. In addition, the result in the experiment with Mus musculus [2], in the experiment on Mus musculus [3], in the experiment on Mus musculus [4], with Mus musculus [5], in the experiment with Mus musculus [6] and with Mus musculus [7] was Active. Also, the outcome in the experiment on Mus musculus [8], with Mus musculus [9] and in the experiment on Mus musculus [10] was Active.

Take `C=C(C)[C@H]1CC=C(C)CC1` [D-LIMONENE]: the Activity in the experiment on Mus musculus [11] was determined as 30%. For the same compound, the result in the experiment with Mus musculus [12], with Mus musculus [13], in the experiment on Mus musculus [14], with Mus musculus [15], with Mus musculus [16] and in the experiment with Mus musculus [17] was Active. The outcome in the experiment with Mus musculus [18], with Mus musculus [19], in the experiment on Mus musculus [20], with Mus musculus [21], in the experiment on Mus musculus [22] and in the experiment with Mus musculus [23] was Active. The result with Mus musculus [24], in the experiment on Mus musculus [25], with Mus musculus [26], in the experiment with Mus musculus [27], with Mus musculus [30] and in the experiment on Mus musculus [31] was Active. Besides, the outcome in the experiment on Mus musculus [32], in the experiment with Mus musculus [34] and in the experiment with Mus musculus [35] was Active. Further, the result in the experiment on Mus musculus [28], in the experiment on Mus musculus [29] and with Mus musculus [33] was inactive.
